Among the data in ChEMBL document CHEMBL1156264, “Synthesis and structure-activity relationships of dimeric peptide antagonists of the human immunoglobulin G-human neonatal Fc receptor (IgG-FcRn) interaction” (J Med Chem, 2010) are Ratio IC50 and IC50 values, retold here.

Numbered stars: 1 amine (or outer) side, 2 acyl side, 3 side chain; on linkers, the order of the positions; unused ones are H or OH. Bridge positions count the residues as written; N and C are the ends. Square brackets hold non-standard residues; d marks the D form. Peptide text beside a SMILES is read from it. I, II: the chains in the order shown. X1 = O=C(C(=O)[*:2])[C@H](Cc1ccc(O)cc1)N[*:1]; NHCH2CH2N(Me)CH2CO = CN(CCN[*:1])CC(=O)[*:2]; NMeL = CN[C@@H](CC(C)C)C(=O)O; Pen = CC(C)(S)[C@H](N)C(=O)O; X2 = C(CN[*:1])NCCN[*:2]; Sar = CNCC(=O)O

Assay [1] addresses T1, IgG receptor FcRn large subunit p51 (Homo sapiens, UniProt P55899). Briefly: Ratio of RF-Pen-TGHFG-Sar-NMeLeu-YPC IC50 to compound IC50 for soluble human FcRn.
In assay [2] the target is T1, IgG receptor FcRn large subunit p51. Briefly: Inhibition of IgG binding to soluble human FcRn after 2 hrs by competition ELISA.

T1 sequence (P55899 whole entry): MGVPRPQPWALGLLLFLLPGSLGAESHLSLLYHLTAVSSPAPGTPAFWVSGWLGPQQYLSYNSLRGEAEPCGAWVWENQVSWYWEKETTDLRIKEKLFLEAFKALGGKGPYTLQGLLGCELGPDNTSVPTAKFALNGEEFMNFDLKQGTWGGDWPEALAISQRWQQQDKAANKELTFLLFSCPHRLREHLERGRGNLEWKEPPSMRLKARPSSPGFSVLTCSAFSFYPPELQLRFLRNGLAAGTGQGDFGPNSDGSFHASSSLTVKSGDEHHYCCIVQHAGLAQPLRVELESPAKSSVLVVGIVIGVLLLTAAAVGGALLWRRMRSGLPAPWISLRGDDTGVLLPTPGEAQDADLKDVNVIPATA

One may read the IC50 as the point on the concentration scale where inhibition reaches its midpoint. For `CC(C)C[C@H]1C(=O)N[C@@H](Cc2ccc(O)cc2)C(=O)C(=O)N2CCC[C@H]2C(=O)N[C@H](C(N)=O)CSSC(C)(C)[C@H](NC(=O)[C@H](Cc2ccccc2)NC(=O)[C@H](CCCNC(=N)N)NC(=O)CC[C@H](C)C(=O)N[C@@H](CCCNC(=N)N)C(=O)N[C@@H](Cc2ccccc2)C(=O)N[C@@H]2C(=O)N[C@@H]([C@@H](C)O)C(=O)NCC(=O)N[C@@H](Cc3c[nH]cn3)C(=O)N[C@@H](Cc3ccccc3)C(=O)NCC(=O)N(C)CC(=O)N(C)[C@@H](CC(C)C)C(=O)N[C@@H](Cc3ccc(O)cc3)C(=O)C(=O)N3CCC[C@H]3C(=O)N[C@H](C(N)=O)CSSC2(C)C)C(=O)N[C@@H]([C@@H](C)O)C(=O)NCC(=O)N[C@@H](Cc2c[nH]cn2)C(=O)N[C@@H](Cc2ccccc2)C(=O)NCC(=O)N(C)CC(=O)N1C`, the Ratio IC50 in assay [1] was determined as 90. Also, the IC50 in assay [2] stood at 5.6 nM.

Take `CC(C)C[C@H]1C(=O)N[C@@H](Cc2ccc(O)cc2)C(=O)C(=O)N2CCC[C@H]2C(=O)N[C@H](C(N)=O)CSSC(C)(C)[C@H](NC(=O)[C@H](Cc2ccccc2)NC(=O)[C@H](CCCNC(=N)N)NC(=O)C[C@H](C)C(=O)N[C@@H](CCCNC(=N)N)C(=O)N[C@@H](Cc2ccccc2)C(=O)N[C@@H]2C(=O)N[C@@H]([C@@H](C)O)C(=O)NCC(=O)N[C@@H](Cc3c[nH]cn3)C(=O)N[C@@H](Cc3ccccc3)C(=O)NCC(=O)N(C)CC(=O)N(C)[C@@H](CC(C)C)C(=O)N[C@@H](Cc3ccc(O)cc3)C(=O)C(=O)N3CCC[C@H]3C(=O)N[C@H](C(N)=O)CSSC2(C)C)C(=O)N[C@@H]([C@@H](C)O)C(=O)NCC(=O)N[C@@H](Cc2c[nH]cn2)C(=O)N[C@@H](Cc2ccccc2)C(=O)NCC(=O)N(C)CC(=O)N1C`: in assay [1], the Ratio IC50 amounted to 110. Moreover, the IC50 in assay [2] stood at 4.6 nM.

As to `CC(C)C[C@H]1C(=O)N[C@@H](Cc2ccc(O)cc2)C(=O)C(=O)N2CCC[C@H]2C(=O)N[C@H](C(N)=O)CSSC(C)(C)[C@H](NC(=O)[C@H](Cc2ccccc2)NC(=O)[C@H](CCCNC(=N)N)NC(=O)CCOCCOCCOCCOCCOCCC(=O)N[C@@H](CCCNC(=N)N)C(=O)N[C@@H](Cc2ccccc2)C(=O)N[C@@H]2C(=O)N[C@@H]([C@@H](C)O)C(=O)NCC(=O)N[C@@H](Cc3c[nH]cn3)C(=O)N[C@@H](Cc3ccccc3)C(=O)NCC(=O)N(C)CC(=O)N(C)[C@@H](CC(C)C)C(=O)N[C@@H](Cc3ccc(O)cc3)C(=O)C(=O)N3CCC[C@H]3C(=O)N[C@H](C(N)=O)CSSC2(C)C)C(=O)N[C@@H]([C@@H](C)O)C(=O)NCC(=O)N[C@@H](Cc2c[nH]cn2)C(=O)N[C@@H](Cc2ccccc2)C(=O)NCC(=O)N(C)CC(=O)N1C`, in assay [1], the Ratio IC50 was found to be 110.

With `CC(C)C[C@H]1C(=O)N[C@@H](Cc2ccc(O)cc2)C(=O)C(=O)N2CCC[C@H]2C(=O)N[C@H](C(N)=O)CSSC(C)(C)[C@H](NC(=O)[C@H](Cc2ccccc2)NC(=O)[C@H](CCCNC(=N)N)NC(=O)CN(C)CC(=O)N[C@@H](CCCNC(=N)N)C(=O)N[C@@H](Cc2ccccc2)C(=O)N[C@@H]2C(=O)N[C@@H]([C@@H](C)O)C(=O)NCC(=O)N[C@@H](Cc3c[nH]cn3)C(=O)N[C@@H](Cc3ccccc3)C(=O)NCC(=O)N(C)CC(=O)N(C)[C@@H](CC(C)C)C(=O)N[C@@H](Cc3ccc(O)cc3)C(=O)C(=O)N3CCC[C@H]3C(=O)N[C@H](C(N)=O)CSSC2(C)C)C(=O)N[C@@H]([C@@H](C)O)C(=O)NCC(=O)N[C@@H](Cc2c[nH]cn2)C(=O)N[C@@H](Cc2ccccc2)C(=O)NCC(=O)N(C)CC(=O)N1C`, the Ratio IC50 in assay [1] is 110.

On to `CC(C)C[C@H]1C(=O)N[C@@H](Cc2ccc(O)cc2)C(=O)C(=O)N2CCC[C@H]2C(=O)N[C@H](C(N)=O)CSSC(C)(C)[C@H](NC(=O)[C@H](Cc2ccccc2)NC(=O)[C@H](CCCNC(=N)N)NC(=O)CCC(=O)N(C)CCN(C)C(=O)CCC(=O)N[C@@H](CCCNC(=N)N)C(=O)N[C@@H](Cc2ccccc2)C(=O)N[C@@H]2C(=O)N[C@@H]([C@@H](C)O)C(=O)NCC(=O)N[C@@H](Cc3c[nH]cn3)C(=O)N[C@@H](Cc3ccccc3)C(=O)NCC(=O)N(C)CC(=O)N(C)[C@@H](CC(C)C)C(=O)N[C@@H](Cc3ccc(O)cc3)C(=O)C(=O)N3CCC[C@H]3C(=O)N[C@H](C(N)=O)CSSC2(C)C)C(=O)N[C@@H]([C@@H](C)O)C(=O)NCC(=O)N[C@@H](Cc2c[nH]cn2)C(=O)N[C@@H](Cc2ccccc2)C(=O)NCC(=O)N(C)CC(=O)N1C`, for which the Ratio IC50 in assay [1] was determined as 100. The compound also registered an IC50 in assay [2] of 5.2 nM.

Consider `CC(C)C[C@H]1C(=O)N[C@@H](Cc2ccc(O)cc2)C(=O)C(=O)N2CCC[C@H]2C(=O)N[C@H](C(N)=O)CSSC(C)(C)[C@H](NC(=O)[C@H](Cc2ccccc2)NC(=O)[C@H](CCCNC(=N)N)NC(=O)CN(C)CCNC(=O)CNC(=O)[C@@H]2CSSC(C)(C)[C@H](NC(=O)[C@H](Cc3ccccc3)NC(=O)[C@@H](N)CCCNC(=N)N)C(=O)N[C@@H]([C@@H](C)O)C(=O)NCC(=O)N[C@@H](Cc3c[nH]cn3)C(=O)N[C@@H](Cc3ccccc3)C(=O)NCC(=O)N(C)CC(=O)N(C)[C@@H](CC(C)C)C(=O)N[C@@H](Cc3ccc(O)cc3)C(=O)C(=O)N3CCC[C@H]3C(=O)N2)C(=O)N[C@@H]([C@@H](C)O)C(=O)NCC(=O)N[C@@H](Cc2c[nH]cn2)C(=O)N[C@@H](Cc2ccccc2)C(=O)NCC(=O)N(C)CC(=O)N1C` (H-RF[Pen]TGHFG[Sar][NMeL][X1]PCG[NHCH2CH2N(Me)CH2CO]RF[Pen]TGHFG[Sar][NMeL][X1]PC-NH2; disulfide 3-13, 18-28), for which the Ratio IC50 in assay [1] was 130.

For the compound `CC(C)C[C@H]1C(=O)N[C@@H](Cc2ccc(O)cc2)C(=O)C(=O)N2CCC[C@H]2C(=O)N[C@H](C(=O)NCC(=O)NCCNCCNC(=O)CNC(=O)[C@@H]2CSSC(C)(C)[C@H](NC(=O)[C@H](Cc3ccccc3)NC(=O)[C@@H](N)CCCNC(=N)N)C(=O)N[C@@H]([C@@H](C)O)C(=O)NCC(=O)N[C@@H](Cc3c[nH]cn3)C(=O)N[C@@H](Cc3ccccc3)C(=O)NCC(=O)N(C)CC(=O)N(C)[C@@H](CC(C)C)C(=O)N[C@@H](Cc3ccc(O)cc3)C(=O)C(=O)N3CCC[C@H]3C(=O)N2)CSSC(C)(C)[C@H](NC(=O)[C@H](Cc2ccccc2)NC(=O)[C@@H](N)CCCNC(=N)N)C(=O)N[C@@H]([C@@H](C)O)C(=O)NCC(=O)N[C@@H](Cc2c[nH]cn2)C(=O)N[C@@H](Cc2ccccc2)C(=O)NCC(=O)N(C)CC(=O)N1C` (I: H-RF[Pen]TGHFG[Sar][NMeL][X1]PCG / II: H-RF[Pen]TGHFG[Sar][NMeL][X1]PCG; disulfide I:3-I:13, II:3-II:13; linker I:C-II:C via X2), the Ratio IC50 in assay [1] was 120.

Take `CC(C)C[C@H]1C(=O)N[C@@H](Cc2ccc(O)cc2)C(=O)C(=O)N2CCC[C@H]2C(=O)N[C@H](C(N)=O)CSSC(C)(C)[C@H](NC(=O)[C@H](Cc2ccccc2)NC(=O)[C@H](CCCNC(=N)N)NC(=O)CC(C)(C)CC(=O)N[C@@H](CCCNC(=N)N)C(=O)N[C@@H](Cc2ccccc2)C(=O)N[C@@H]2C(=O)N[C@@H]([C@@H](C)O)C(=O)NCC(=O)N[C@@H](Cc3c[nH]cn3)C(=O)N[C@@H](Cc3ccccc3)C(=O)NCC(=O)N(C)CC(=O)N(C)[C@@H](CC(C)C)C(=O)N[C@@H](Cc3ccc(O)cc3)C(=O)C(=O)N3CCC[C@H]3C(=O)N[C@H](C(N)=O)CSSC2(C)C)C(=O)N[C@@H]([C@@H](C)O)C(=O)NCC(=O)N[C@@H](Cc2c[nH]cn2)C(=O)N[C@@H](Cc2ccccc2)C(=O)NCC(=O)N(C)CC(=O)N1C`: the Ratio IC50 in assay [1] amounted to 100.
